The values that follow come from patent US4356119A, “Therapeutically active polypeptides or acid addition salts and a process for producing such compounds” (Nordisk Insulinlaboratorium, priority 1978, dated 1982).

In one experiment the test system is Langerhan's islets. Description: glucose stimulated insulin secretion from isolated Langerhan's islets. In kind it is cell-based. To be noted: 10 mM glucose, hydrochlorides. The procedure: In vitro determination of the effect of the peptides on the glucose stimulated insulin secretion was carried out on Langerhan's islets isolated by collagenase technique and preincubated 24 hours at 37° C. Secretion tests were conducted with 10 mM of glucose and three peptide concentrations.
All peptides have been tested in the form of their hydrochlorides together with 10 mM of glucose, and the values are calculated as a percentage of the effect of 10 mM of glucose alone.

A further experiment concerns fat cells. Description: insulin potentiating effect on glucose metabolism in isolated fat cells. It is filed as cell-based. The settings on record: 50 ng/ml insulin + 0 μg/ml peptide = 100%. The source says:
In vitro determination of the insulin potentiating effect of the peptides on the metabolism of glucose has given the following results, the general methods being described elsewhere (3).
All other values are based on this.

The conditions of experiment [1]: pharmacological dosages; Enk et al. (6); cited from earlier work.
The mark [2] stands for this setting: insulin 0 ng/ml, peptide 0.01 μg/ml.
Where [3] appears, read: insulin 0 ng/ml, peptide 0.1 μg/ml.
The mark [4] stands for this setting: insulin 0 ng/ml, peptide 1 μg/ml.
The mark [5] stands for this setting: insulin 0 ng/ml, peptide 10 μg/ml.
Where [6] appears, read: insulin 0 ng/ml, peptide 100 μg/ml.
The mark [7] stands for this setting: insulin 0.6 ng/ml, peptide 0.01 μg/ml.
Setting [8] is: insulin 0.6 ng/ml, peptide 0.1 μg/ml.
[9] abbreviates: insulin 0.6 ng/ml, peptide 1 μg/ml.
Setting [10] is: insulin 0.6 ng/ml, peptide 10 μg/ml.
The mark [11] stands for this setting: insulin 0.6 ng/ml, peptide 100 μg/ml.
Where [12] appears, read: insulin 50 ng/ml, peptide 0.01 μg/ml.
Setting [13] is: insulin 50 ng/ml, peptide 0.1 μg/ml.
The mark [14] stands for this setting: insulin 50 ng/ml, peptide 1 μg/ml.
The mark [15] stands for this setting: insulin 50 ng/ml, peptide 10 μg/ml.
[16] abbreviates: insulin 50 ng/ml, peptide 100 μg/ml.

Where a SMILES comes first, the peptide text is derived from it.

Consider glu-leu-ser-arg-OMe, 2HCl [compound 1], for which the results for the “glucose stimulated insulin secretion, percentage of the effect of 10 mM of glucose alone” value in the experiment with Langerhan's islets, with Langerhan's islets (peptide 5 mmolar) and with Langerhan's islets (peptide 5 × 10^-2 mmolar) were 59%, 51% and 76%, respectively. In addition, the “glucose metabolism in fat cells” value with fat cells (setting [2]) is reported as 22%; in the experiment on fat cells (setting [3]), 22%; in the experiment with fat cells (setting [4]), 22%; in the experiment with fat cells (setting [5]) it was 22%; with fat cells (setting [6]) it was 22%; with fat cells (setting [7]) it was 94%. In addition, the “glucose metabolism in fat cells” value with fat cells (setting [8]) came out at 90%; in the experiment with fat cells (setting [9]) it was 88%; with fat cells (setting [10]) it was 91%; with fat cells (setting [11]), 108%; in the experiment with fat cells (setting [12]), 118%; in the experiment with fat cells (setting [13]) it was 113%. Moreover, the “glucose metabolism in fat cells” value with fat cells (setting [14]) came to 112%; with fat cells (setting [15]), 113%; with fat cells (setting [16]), 126%.
Consider `COC(=O)[C@H](CCCNC(=N)N)NC(=O)[C@H](C)NC(=O)[C@H](CO)NC(=O)[C@@H](N)CC(=O)O` [compound 3, asp-ser-ala-arg-OMe, 2HCl] (H-DSAR-OMe), for which the “glucose metabolism in fat cells” value in the experiment on fat cells (setting [2]) is 8%; with fat cells (setting [3]) it was 8%; in the experiment on fat cells (setting [4]), 8%; in the experiment on fat cells (setting [5]), 8%; in the experiment with fat cells (setting [6]), 16%; in the experiment with fat cells (setting [7]) it was 90%. The “glucose metabolism in fat cells” value with fat cells (setting [8]) stood at 85%; in the experiment on fat cells (setting [9]), 80%; in the experiment with fat cells (setting [10]), 80%; with fat cells (setting [11]), 100%; in the experiment on fat cells (setting [12]), 114%; in the experiment on fat cells (setting [13]), 112%. In addition, the “glucose metabolism in fat cells” value with fat cells (setting [14]) is given as 108%; in the experiment on fat cells (setting [15]) it was 108%; with fat cells (setting [16]), 124%.
As for `COC(=O)[C@H](CCCNC(=N)N)NC(=O)CNC(=O)CNC(=O)CNC(=O)[C@@H](N)CCC(=O)O` [compound 6, glugly-gly-gly-arg-OMe, 2HCl] (H-EGGGR-OMe), the “glucose metabolism in fat cells” value in the experiment with fat cells (setting [6]) was found to be 10%; with fat cells (setting [11]) it was 89%; with fat cells (setting [16]), 121%.
“glu-leu-ser-arg-leu-arg-OMe, 3HCl [compound 2]”: the “glucose stimulated insulin secretion, percentage of the effect of 10 mM of glucose alone” value in the experiment with Langerhan's islets was determined as 73%; in the experiment with Langerhan's islets (peptide 5 mmolar) it was 113%; with Langerhan's islets (peptide 5 × 10^-2 mmolar) it was 66%. For the same molecule, the “glucose metabolism in fat cells” value stood at 20% with fat cells (setting [2]); 20% in the experiment with fat cells (setting [3]); 21% with fat cells (setting [4]); 20% with fat cells (setting [5]); 15% with fat cells (setting [6]); 83% with fat cells (setting [7]). Also, the “glucose metabolism in fat cells” value is recorded as 88% in the experiment on fat cells (setting [8]); 86% with fat cells (setting [9]); 85% with fat cells (setting [10]); 55% in the experiment on fat cells (setting [11]); 114% in the experiment on fat cells (setting [12]); 112% in the experiment with fat cells (setting [13]). For the same molecule, the figures for the “glucose metabolism in fat cells” value in the experiment on fat cells (setting [14]), in the experiment on fat cells (setting [15]) and with fat cells (setting [16]) were 108%, 112% and 70%, respectively.
For the molecule “glu-leu-ser-arg-leu-arg-asp-ser-ala-arg-OMe, 4HCl [compound 4]”, the “glucose stimulated insulin secretion, percentage of the effect of 10 mM of glucose alone” value with Langerhan's islets was found to be 41%; in the experiment on Langerhan's islets (peptide 5 mmolar) it was 9%; in the experiment on Langerhan's islets (peptide 5 × 10^-2 mmolar), 96%.
For the molecule secretin, in experiment [1], the blood sugar level entry is given as “without affecting the blood sugar level” and the secretion of insulin entry is reported as “potentiate secretion of insulin”.
